We go through 5 compounds from patent publication US8420606B2, “Method of utilizing physiological activity of rare saccharide and composition containing rare saccharide” (priority 2002, dated 2013).

Test [1] concerns glutamate release from hippocampus. Put plainly: temporary brain ischemia, glutamate outside hippocampus neurons by micro-dialysis. Type of test: in vivo, gerbil. The note with it: pre-administration; compared with effect of D-allose. The method, then:
(2) Method: The bilateral common carotid artery of a gerbil was shut off for 5 minutes. After 1 week, the gerbil was sacrificed and a sample was prepared in accordance with the ordinary method, followed by hematoxyline eosin dyeing. The survival rate was measured by counting the number of hippocampus neurons while looking at them under a microscope. Experiments were performed on a normal control group, a group subjected to only ischemia, and a group administrated with 200 mg/kg of D-allose or D-psicose before ischemia. It is known that glutamates released in large amount from the neurons with ischemia are toxic to the neurons. Such a point was examined by fixing the gerbil to a brain position fixing device, perfusing a solution, in which oxidase glutamate is dissolved, to the hippocampus through a probe for micro-dialysis, and measuring the glutamate concentration outside the hippocampus neurons. Also, the inventors have clarified the relationship between the metabolism of glucose and the action mechanism of D-allose with ischemia by pre-administrating D-allose and 2-deoxiglucose.

In the next test the test system is Daudi. Put plainly: blood-system cancer cell strain proliferation, Coulter Counter, Daudi. The note with it: 0.05-50 mM, 7 days, D-glucose control. Type of test: cell-based. The procedure: (§1) (2) Method: Total 6 kinds of cell strains, i.e., Myeloid (HL-60, THP-1, KG-1), T-cell (MT-2), and B-Cell (Daudi, KS-1), and 3 kinds of rare saccharides (i.e., D-psicose, D-altrose, and D-allose), were employed. The culture medium and the cells were prepared to be 1 mL in total and 1×10^5 in number, respectively. Then, the cell number at each of fourth day and seventh day was counted by using a Coulter Counter. Each rare saccharide was added at concentrations of 0.05, 0.5, 5 and 50 mM, while D-glucose was used as a control.
(§2) Culture Medium: FBS 10% added RPMI1460
(§3) Cultivation Conditions: 37° C., 5% CO2
(§4) Cultivation Vessel: FALCON, MULTIWELL, 12 wells
(§5) Number of Cultivation Days: 7 days
(§6) Saccharides Concentration: 0.05, 0.5, 5, 50 mM

Test [2] deals with ovary cancer cells (OVCAR3). In words: proliferation of cultured cells, MTT method, OVCAR3. Type of test: cell-based. Particulars: saccharide 50 mM, 4 to 5 days, MTT. The procedure: (§7) Various kinds of rare saccharides were added at a concentration of 50 mM to culture media under the following conditions, and an influence of each rare saccharide upon the progress of proliferation of cancer cell strains was examined.
(§8) (1) Target cells to which the rare saccharides were added: Hepatic cancer cells (HepG2), uterine cancer cells (He1a), ovary cancer cells (OVCAR3), and skin keratinocyte (HaCaT) were selected as target cells to which the rare saccharides were added.
(§9) (2) Rare saccharides added: In addition to D-allose, glucose and D-altros as rare saccharides belonging to ketose were added, as other comparative saccharides, to the addition target cells. Also, D-fructose was employed as a control.
(§10) (3) Experiment method: A number 3,000-5,000 of addition target cells per type were inoculated into a multi-well plastic dish (hereinafter referred to as a “well”) having 96 wells, and were cultured for 4 to 5 days in a culture medium supplemented with 5 to 10% of Fetal Bovine Serum (FBS) depending on the cell types. D-Allose, D-glucose and D-altros were each added at concentration of 50 mM to the addition target cells per type. Similarly, D-fructose as a control was added at a concentration of 50 mM. To examine the influence upon the cell proliferation, the cell number was measured in units of 24 hours by using the MTT method described below.
(1) Preparation of reagents: A predetermined amount of MTT (tetrazolium salt) was dissolved in PBS(−) sterilized in an autoclave to obtain an MTT solution through filtering and sterilization. An acidic solution was prepared by adding 50 mL of N,N-dimethylformaldehyde and water to a predetermined amount of (20 g) of SDS, thereby obtaining a 100 mL of solution. About […] of 1N hydrochloric acid was added to the solution for adjustment of a pH-value to 4.7. The solution was preserved at room temperature and warmed up to 37° C. just before the use.
(2) Test method: The cells were treated with TEP to prepare a cell suspension liquid. This cell suspension liquid was pipetted in a predetermined cell-density (300 to 52000 cells/well) to each well (96-well plate: 0.1 mL of culture medium per well). The saccharide as a drug was added in a predetermined amount to each well, followed by cultivation for a whole day and night in a CO2 incubator. Then, 0.5 mg/mL of the MTT solution was added and the resulting culture was incubated for 4 hours in the incubator. Thereafter, the culture medium was completely removed. Then, in a room kept at 37° C., an acid solution was added in amount of 0.1 mL/well. The well plate was placed on a micro-plate mixer and shaken at 37° C. for 20 minutes to dissolve a colored substance (namely, to dissolve “formazan” in the acid solution). The absorbance of the liquid was measured at a wavelength of 570 to 600 nm by using a spectrophotometer. After dissolving the colored substance (formazan) in the acid solution, the absorbance can be measured directly by a plate reader.
(1) Experiment method: The ovary cancer cells (OVCAR3) were selected as target cells to which a rare saccharide was added, and D-allose as the saccharide was added at concentrations of 1 mM, 5 mM, 10 mM, 20 mM, 50 mM and 100 mM. The experimental conditions, such as the method of culturing the ovary cancer cells (OVCAR3) and the method of measuring the cell number (MTT method), were the same as those in Example 1.

In test [3] the test system is skin keratinocyte (HaCaT). Put plainly: proliferation of cultured cells, MTT method, HaCaT. Type of test: cell-based, human. Particulars: saccharide 50 mM, 4 to 5 days. The procedure:
as §7, §8, §9
(3) Experiment method: A number 3,000-5,000 of addition target cells per type were inoculated into a multi-well plastic dish (hereinafter referred to as a “well”) having 96 wells, and were cultured for 4 to 5 days in a culture medium supplemented with 5 to 10% of Fetal Bovine Serum (FBS) depending on the cell types. […] To examine the influence upon the cell proliferation, the cell number was measured in units of 24 hours by using the MTT method described below. […]
(2) Test method: The cells were treated with TEP to prepare a cell suspension liquid. […] The absorbance of the liquid was measured at a wavelength of 570 to 600 nm by using a spectrophotometer. […]
For orientation: Formazan colour is commonly taken as a measure of viable cells.

In test [4] the test system is Hepatic cancer cells (HepG2). In words: proliferation of cultured cells, MTT method, HepG2. In kind it is cell-based, human. The note with it: saccharide 50 mM, 4 to 5 days. The method, then: as §7, §8, §9, §10
(1) Preparation of reagents: A predetermined amount of MTT (tetrazolium salt) was dissolved in PBS(−) sterilized in an autoclave to obtain an MTT solution through filtering and sterilization. An acidic solution was prepared by adding 50 mL of N,N-dimethylformaldehyde and water to a predetermined amount of (20 g) of SDS, thereby obtaining a 100 mL of solution. […]
(2) Test method: The cells were treated with TEP to prepare a cell suspension liquid. […] The absorbance of the liquid was measured at a wavelength of 570 to 600 nm by using a spectrophotometer. After dissolving the colored substance (formazan) in the acid solution, the absorbance can be measured directly by a plate reader.

For test [5], the system named is Rat leukocyte (granulocyte). Put plainly: production of active oxygen from leukocyte, LO12 chemiluminescence, zymosan. Type of test: cell-based. Particulars: saccharide 10 mM added to the producing system, zymosan. The procedure:
Influences of various kinds of rare saccharides upon production of active oxygen from leukocyte were examined under the conditions given below. In this Example 5, an effect against the production of active oxygen from leukocyte was examined with LO12 chemiluminescence.
(1) Target leukocyte to which the rare saccharides were added: Rat leukocyte (granulocyte) was used.
(2) Rare saccharides added: In addition to D-allose as a rare saccharide belonging to aldose, D-psicose and D-altros as rare saccharides belonging to ketose and D-tallitol belong to polyol were added as other comparative saccharides. Further, D-glucose and D-fructose were employed as saccharides abundant in the natural world.
(3) Experiment method: (1) Changes over time in production of active oxygen from rat leukocyte . . . The time-dependent progress in production of active oxygen caused by adding zymosan particles to rat leukocyte (granulocyte) was examined. Also, the time-dependent progress in production of active oxygen caused under the presence of each of the rare saccharides was examined.
(2) Influences of rare saccharides upon production of active oxygen . . . By adding the various saccharides to the system for producing active oxygen from leukocyte, the amount of produced active oxygen was measured for each saccharide. The concentration of each of the added rare saccharides was set to 10 mM. Also, the measurement was made under the condition without addition of any saccharides.
(3) Effect of rare saccharides upon production of active oxygen . . . The rare saccharides were each added at concentration of 10 mM after the start of phagocytosis and the start of the production of active oxygen subsequent to addition of zymosan to leukocyte.
(4) Concentration dependency of active-oxygen production inhibitory effect of D-allose . . . Concentration dependency of the active-oxygen production inhibitory effect of D-allose was examined. D-allose was added at concentration of 0 mM, 5 mM and 10 mM.

The next test has as its system HL-60. Put plainly: blood-system cancer cell strain proliferation, Coulter Counter, HL60. In kind it is cell-based. Particulars: 0.05-50 mM, 7 days, D-glucose control. The method, then:
as §1, §2, §3, §4, §5, §6

A further test has as its target human albumin (Homo sapiens, UniProt P02768). Put plainly: saccharification (glycation) of albumin, glycoalbumin reagent. Particulars: albumin 3 g/dl. In kind it is biochemical. The procedure:
(2) Method: After fragmenting albumin into amino acids by using protease K, i.e., glycoalbumin (GA) measurement reagent (made by Oriental Yeast Co., Ltd.), glycolysine was measured by using ketoamine oxydase (see FIG. 38). Glycation of human albumin with various rare saccharides was examined. A sample was prepared through the steps of dissolving 3 g/dl of pure human albumin in PBS and then dissolving each of the rare saccharides so as to prepare a solution in final concentration of 55.5 mM. The prepared solution was filtrated with a filter of 0.25 μm mesh and sterilized, followed by incubation at 37° C. for 7 days. During the incubation, the GA concentration (glycolysine concentration) was measured at intervals of exactly 24 hours. Further, similar experiments were conducted by adding each of the rare saccharides in an albumin solution (final concentration 3 g/dl) and a glucose solution (final concentration 55.5 mM) so that each of the rare saccharides had final concentration of 55.5 mM.

The mark [6] stands for this setting: saccharide 55.5 mM, 37° C., 7 days.

SMILES strings stand for the structures.

Chain of human albumin (P02768 25-609): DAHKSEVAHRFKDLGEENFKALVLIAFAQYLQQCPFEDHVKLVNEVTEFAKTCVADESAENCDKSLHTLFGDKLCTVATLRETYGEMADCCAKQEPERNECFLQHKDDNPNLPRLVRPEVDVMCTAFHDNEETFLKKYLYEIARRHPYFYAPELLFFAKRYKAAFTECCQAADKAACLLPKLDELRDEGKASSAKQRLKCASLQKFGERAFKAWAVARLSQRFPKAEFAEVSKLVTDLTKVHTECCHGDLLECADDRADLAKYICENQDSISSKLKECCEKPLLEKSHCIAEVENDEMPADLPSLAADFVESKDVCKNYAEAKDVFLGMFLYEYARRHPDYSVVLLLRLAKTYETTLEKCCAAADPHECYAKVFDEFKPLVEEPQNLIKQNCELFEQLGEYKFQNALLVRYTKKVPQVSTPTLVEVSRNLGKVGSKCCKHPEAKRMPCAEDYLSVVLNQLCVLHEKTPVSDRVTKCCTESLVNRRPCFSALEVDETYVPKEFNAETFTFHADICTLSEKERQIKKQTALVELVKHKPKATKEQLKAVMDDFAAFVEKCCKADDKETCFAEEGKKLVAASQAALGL

As for `O=CC[C@@H](O)[C@H](O)[C@H](O)CO` [2-deoxyglucose, reference compound], in test [1], the “glutamate release inhibitory effect” value was “similarly observed”.
Consider `O=C[C@@H](O)[C@H](O)[C@H](O)[C@H](O)CO` [D-altrose, reference compound], for which, in the test on Daudi, the “Daudi-cell proliferation inhibitory effect” value was “showed no effect”. In addition, the “proliferation of OVCAR3 cells (cell number over time)” value in test [2] was “weaker than that of D-allose”. The “proliferation of HaCaT cells (cell number over time)” value in test [3] is “inhibitory effect at a medium level”. For the same compound, in test [4], the “proliferation of HepG2 cells (cell number over time)” value was “weaker than that of D-allose”. For the same compound, the “production of active oxygen from leukocyte” value in test [5] is “No inhibitory effect”. In the test with HL-60, the “HL60 proliferation inhibitory effect” value was “showed no effect”.
On to `O=C(CO)[C@@H](O)[C@H](O)[C@H](O)CO` [D-fructose, reference compound], for which, on human albumin (setting [6]), the “glycation (saccharification) of albumin” value was “do not cause the saccharification”.
As to `O=C[C@@H](O)[C@@H](O)[C@H](O)[C@H](O)CO` [D-mannose, reference compound], the “saccharification rate of albumin under coexistence with glucose” value on human albumin (saccharide 55.5 mM + D-glucose 55.5 mM) is “about 100 μmol/day”. Besides, the “saccharification rate of albumin” value at human albumin (setting [6]) was “about 50 μmol/day”.
With `OC[C@@H](O)[C@H](O)[C@H](O)[C@H](O)CO` [D-tallitol, reference compound], the “production of active oxygen from leukocyte” value in test [5] was “No inhibitory effect”.
